This assay relates to donor lung of a pig. Put plainly: Ex vivo lung perfusion (EVLP) of pig donor lungs simulating lung transplantation. As to the method:
Brain-dead pigs were brought into back position and a vertical sternotomy was carried out. The pericardium and both pleural cavities were opened. The lower and upper cavial venes were embraced. An inflow catheter was inserted into the lung artery by means of a purse-string suture in the right ventricular discharging tract. An inflow occlusion was obtained by connecting the lower and upper cavial venes, discharge occlusion by stapling off the aorta. The lungs then were protected by a prophylactic rinsing with cold, isotonic conservation solution (50 ml per kg body weight of the pig, comprising potassium ions, sodium ions, magnesium ions, calcium ions, chloride ions, dextran, glucose, buffer ions) through the inflow catheter. Incision of the left heart tube yields discharge. The lungs were aerated during that time period with 50% oxygen and ice sludge was given into both pleural cavities and into the mediastinum.
The explanation technique in sum was the removal with heart and esophagus according to the following steps: • a) Dissection of the soft tissue bridges to the thoracic cavity at both sides of the trachea. • b) Transsection of both pulmonal ligaments (very deep, difficult exposure), then of VCI, of the low thoracic aorta ascendens, or the esophagus, respectively. • c) Blunt-separation of residual mediastinal adhesions. • d) Entire distension of the donor lung before the tracheal closure with a clip.
After explantation the lungs were winded into gauze, put into an ice bag, filled with low-potassium-dextran-extracellular solution and stored at 4° C. for 18 to 24 hours.
For the ex-vivo lung conditioning the EVLP-technique was used ([…]). […] During the EVLP the lung function may be assessed regularly regarding key indicators. […]
The processing of the donor lung from the pig was started with sewing on a funnel-shaped tube from Silastic with a pressure-monitored catheter, implemented into the left atrial cuff (LA), for openly splinting the LA and for maintaining a closed perfusion circulation. […]

Setting [1] is: inhalation 1 mg/kg, vs Water for Injection.

Here are results for 2 compounds from patent US10711041B2, “Lyophilisate containing a cyclic peptide of formula X1-[sequence]-X2” (priority 2013, dated 2020).

Bridges are numbered along the chain shown (N, C = ends). Where no end group is shown, it is not given here.

With “Cyclo(CGQREAPAGAAAKPWYC) (disulfide 1-17) [SEQ ID NO: 7, reference compound]”, the “effects regarding the lung” value was “no improving effects”.
Regarding `C[C@@H]1NC(=O)CNC(=O)[C@H](CCC(=O)O)NC(=O)[C@@H]2CCCN2C(=O)[C@H]([C@@H](C)O)NC(=O)[C@H](CCC(=O)O)NC(=O)[C@H](CCCNC(=N)N)NC(=O)[C@H](CCC(N)=O)NC(=O)CNC(=O)[C@@H](N)CSSC[C@@H](C(=O)O)NC(=O)[C@H](Cc2ccc(O)cc2)NC(=O)[C@H](Cc2c[nH]c3ccccc23)NC(=O)[C@@H]2CCCN2C(=O)[C@H](CCCCN)NC(=O)[C@H](C)NC(=O)[C@H](CCC(=O)O)NC1=O` [SEQ ID NO: 1], under setting [1], the “arterio-venous pO2 difference ΔpO2” value is listed as “improved” and the “dynamic lung conformity (compliance)” value is “improved”.
